# Measurements reported in patent US20240158446A1, “CYCLIC COMPOUND HAVING SELECTIVE INHIBITORY ACTION ON KRAS OVER HRAS AND NRAS” (CHUGAI SEIYAKU KABUSHIKI KAISHA, priority 2021, published 2024).
# *1 amine or outer side, *2 acyl side, *3 side chain or, on linkers, in order; H or OH if unused. Where a SMILES comes first, the peptide text is derived from it. Bridges are numbered along the chain shown (N, C = ends). [ ]: non-standard residue; d: D form. The star is where a group is joined. hPhe(3,5-F2-4-CF3) = N[C@@H](CCc1cc(F)c(C(F)(F)F)c(F)c1)C(=O)O; X49 = CCCN([C@@H](Cc1ccc(OCC=[*:3])cc1)C(=O)[*:2])[*:1]; NPrPhe(4-CF3) = CCCN[C@@H](Cc1ccc(C(F)(F)F)cc1)C(=O)O; X14 = CN([C@@H](CCCCC=[*:3])C(=O)[*:2])[*:1]; dαMeAlg = C[C@](CC=[*:3])(N[*:1])C(=O)[*:2]; X48 = CN([C@@H](CCC=[*:3])C(=O)[*:2])[*:1]; NMeGly(cPent) = CN[C@H](C(=O)O)C1CCCC1; Hyp = O=C(O)[C@@H]1C[C@@H](O)CN1; NMeD = CN[C@@H](CC(=O)O)C(=O)O; Morpholide = C1CN(*)CCO1; Ac5c = NC1(C(=O)O)CCCC1; Sar = CNCC(=O)O
# What was measured:
# [1] = system: human lung cancer strain NCI-H441;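 further: cell proliferation inhibition after four days measured by CellTiter-Glo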
# [2] = molecular target: GDP-bound HRAS wild-type protein (Homo sapiens, UniProt P01112); assay: Binding to HRAS by surface plasmon resonance (SPR), Single Cycle Kinetics; settings: SPR, GDP-bound HRAS wild-type protein vs GDP-bound KRAS wild-type protein
# Chain of GDP-bound HRAS wild-type protein (P01112 whole entry): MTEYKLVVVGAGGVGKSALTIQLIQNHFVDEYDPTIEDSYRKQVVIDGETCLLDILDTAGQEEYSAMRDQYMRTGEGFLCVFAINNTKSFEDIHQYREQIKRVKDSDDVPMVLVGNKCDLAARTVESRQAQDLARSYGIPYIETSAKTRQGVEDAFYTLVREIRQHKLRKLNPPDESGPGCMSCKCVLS
# [3] = molecular target: GDP-bound NRAS wild-type protein (Homo sapiens, UniProt P01111); assay: Binding to NRAS by surface plasmon resonance (SPR), Single Cycle Kinetics; settings: SPR, GDP-bound NRAS wild-type protein vs GDP-bound KRAS wild-type protein
# Chain of GDP-bound NRAS wild-type protein (P01111 whole entry): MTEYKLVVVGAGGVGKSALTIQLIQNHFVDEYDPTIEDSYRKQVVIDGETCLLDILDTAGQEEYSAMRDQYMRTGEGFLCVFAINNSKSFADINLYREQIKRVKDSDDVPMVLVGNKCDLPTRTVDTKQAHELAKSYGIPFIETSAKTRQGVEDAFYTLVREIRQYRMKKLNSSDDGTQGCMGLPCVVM
Structure (SMILES),IC50 [1] [µM],HRAS/KRAS (ratio of KD value for HRAS to KD value for KRAS) [2],NRAS/KRAS (ratio of KD value for NRAS to KD value for KRAS) [3]
CC[C@H](C)[C@@H]1NC(=O)[C@H](CC(C)C)N(C)C(=O)C[C@@H](C(=O)N2CCOCC2)N(C)C(=O)[C@H](C2CCCC2)N(C)C(=O)C2(CCC2)NC(=O)[C@@H]2[C@H]3C[C@H]3CN2C(=O)[C@H](CCc2cc(F)c(C(F)(F)F)c(F)c2)NC(=O)CN(C)C(=O)[C@H](Cc2ccc(C(F)(F)F)cc2)N2CCCCC[C@@H](C2=O)N(C)C(=O)CN(C)C1=O [PP0819],0.0757,B (a compound having 3 or more and less than 10 is denoted as B),A (a compound having 10 or more and less than 20 is denoted as A)
CCO[C@@H]1C[C@H]2C(=O)NC3(CCC3)C(=O)N(C)[C@@H](C3CCCC3)C(=O)N(C)[C@H](C(=O)N3CCOCC3)CC(=O)N(C)[C@@H](COCC(F)(F)F)C(=O)N[C@@H]([C@@H](C)CC)C(=O)N(C)CC(=O)N(C)[C@H]3CCCCCN(C3=O)[C@@H](Cc3ccc(C(F)(F)F)cc3)C(=O)N(C)CC(=O)N[C@@H](CCc3cc(F)c(C(F)(F)F)c(F)c3)C(=O)N2C1 [PP0853],0.0243,B (a compound having 3 or more and less than 10 is denoted as B),B (a compound having 3 or more and less than 10 is denoted as B)
CCO[C@@H]1C[C@H]2C(=O)NC3(CCC3)C(=O)N(C)[C@@H](C3CCCC3)C(=O)N(C)[C@H](C(=O)N3CCOCC3)CC(=O)N(C)[C@@H](Cc3cscn3)C(=O)N[C@@H]([C@@H](C)CC)C(=O)N(C)CC(=O)N(C)[C@H]3CCCCCN(C3=O)[C@@H](Cc3ccc(C(F)(F)F)cc3)C(=O)N(C)CC(=O)N[C@@H](CCc3cc(F)c(C(F)(F)F)c(F)c3)C(=O)N2C1 [PP0855],0.114,B (a compound having 3 or more and less than 10 is denoted as B),B (a compound having 3 or more and less than 10 is denoted as B)
CCO[C@@H]1C[C@H]2C(=O)NC3(CCC3)C(=O)N(C)[C@@H](C3CCCC3)C(=O)N(C)[C@H](C(=O)N3CCOCC3)CC(=O)N(C)[C@@H](Cc3cccc(F)c3)C(=O)N[C@@H]([C@@H](C)CC)C(=O)N(C)CC(=O)N(C)[C@H]3CCCCCN(C3=O)[C@@H](Cc3ccc(C(F)(F)F)cc3)C(=O)N(C)CC(=O)N[C@@H](CCc3cc(F)c(C(F)(F)F)c(F)c3)C(=O)N2C1 [PP0856],0.0667,B (a compound having 3 or more and less than 10 is denoted as B),B (a compound having 3 or more and less than 10 is denoted as B)
CCO[C@@H]1C[C@H]2C(=O)NC3(CCC3)C(=O)N(C)[C@@H](C3CCCC3)C(=O)N(C)[C@H](C(=O)N(C)C)CC(=O)N(C)[C@@H](CC)C(=O)N[C@@H]([C@@H](C)CC)C(=O)N(C)CC(=O)N(C)[C@H]3CCCCN(C3=O)[C@@H](Cc3ccc(C(F)(F)F)cc3)C(=O)N(C)CC(=O)N[C@@H](CCc3ccc4ccsc4c3)C(=O)N2C1 [PP0888],0.0256,B (a compound having 3 or more and less than 10 is denoted as B),C (A compound having a KD ratio of 0.1 or more and less than 3 is denoted as C)
CCCN1C(=O)CN(C)C(=O)CN(C)C(=O)[C@H]([C@@H](C)CC)NC(=O)[C@@H]2COCCCC[C@@](C)(NC(=O)[C@@H]3C[C@@H](OCC)CN3C(=O)[C@H](CCc3cc(F)c(C(F)(F)F)c(F)c3)NC(=O)CN(C)C(=O)[C@@H]1Cc1ccc(C(F)(F)F)cc1)C(=O)N(C)[C@@H](C1CCCC1)C(=O)N(C)[C@H](C(=O)N1CCOCC1)CC(=O)N2C [PP0899],0.923,B (a compound having 3 or more and less than 10 is denoted as B),A (a compound having 10 or more and less than 20 is denoted as A)
"CCCN1C(=O)CN(C)C(=O)CN(C)C(=O)[C@H]([C@@H](C)CC)NC(=O)[C@@H]2CCC=CCOc3ccc(cc3)C[C@H]1C(=O)N(C)CC(=O)N[C@@H](CCc1cc(F)c(C(F)(F)F)c(F)c1)C(=O)N1C[C@H](OCC)C[C@H]1C(=O)NC1(CCCC1)C(=O)N(C)[C@@H](C1CCCC1)C(=O)N(C)[C@H](C(=O)N(C)C)CC(=O)N2C [PP0900] ([X48]I[Sar][Sar][X49][Sar][hPhe(3,5-F2-4-CF3)][Hyp](Et)[Ac5c][NMeGly(cPent)][NMeD]-NMe2; staple 1-5; lactam N-11)",0.0049,C (A compound having a KD ratio of 0.1 or more and less than 3 is denoted as C),C (A compound having a KD ratio of 0.1 or more and less than 3 is denoted as C)
"CCCN1C(=O)CN(C)C(=O)CN(C)C(=O)[C@H]([C@@H](C)CC)NC(=O)[C@@H]2CCCCC=CC[C@@](C)(NC(=O)[C@@H]3C[C@@H](OCC)CN3C(=O)[C@H](CCc3cc(F)c(C(F)(F)F)c(F)c3)NC(=O)CN(C)C(=O)[C@@H]1Cc1ccc(C(F)(F)F)cc1)C(=O)N(C)[C@@H](C1CCCC1)C(=O)N(C)[C@H](C(=O)N1CCOCC1)CC(=O)N2C [PP0902] ([X14]I[Sar][Sar][NPrPhe(4-CF3)][Sar][hPhe(3,5-F2-4-CF3)][Hyp](Et)[dαMeAlg][NMeGly(cPent)][NMeD]-Morpholide; staple 1-9; lactam N-11)",0.0726,B (a compound having 3 or more and less than 10 is denoted as B),A (a compound having 10 or more and less than 20 is denoted as A)
CCO[C@@H]1C[C@H]2C(=O)NC3(CCC3)C(=O)N(C)[C@@H](C3CCCC3)C(=O)N(C)[C@H](C(=O)N(C)C)CC(=O)N(C)[C@@H](CC)C(=O)N[C@@H]([C@@H](C)CC)C(=O)N(C)CC(=O)N(C)[C@H]3CCCCCN(C3=O)[C@@H](Cc3ccc(F)c(F)c3)C(=O)N(C)CC(=O)N[C@@H](CCc3cc(F)c(C(F)(F)F)c(F)c3)C(=O)N2C1 [PP0907],0.0248,B (a compound having 3 or more and less than 10 is denoted as B),B (a compound having 3 or more and less than 10 is denoted as B)
CCO[C@@H]1C[C@H]2C(=O)NC3(CCC3)C(=O)N(C)[C@@H](C3CCCC3)C(=O)N(C)[C@H](C(=O)N(C)C)CC(=O)N(C)[C@@H](CC)C(=O)N[C@@H]([C@@H](C)CC)C(=O)N(C)CC(=O)N(C)[C@H]3CCCCCN(C3=O)[C@@H](Cc3ccc(F)cc3Cl)C(=O)N(C)CC(=O)N[C@@H](CCc3cc(F)c(C(F)(F)F)c(F)c3)C(=O)N2C1 [PP0908],0.0385,B (a compound having 3 or more and less than 10 is denoted as B),B (a compound having 3 or more and less than 10 is denoted as B)
CCO[C@@H]1C[C@H]2C(=O)NC3(CCC3)C(=O)N(C)[C@@H](C3CCCC3)C(=O)N(C)[C@H](C(=O)N(C)C)CC(=O)N(C)[C@@H](CC)C(=O)N[C@@H]([C@@H](C)CC)C(=O)N(C)CC(=O)N(C)[C@H]3CCCCCN(C3=O)[C@@H](Cc3ccc(F)c(C)c3)C(=O)N(C)CC(=O)N[C@@H](CCc3cc(F)c(C(F)(F)F)c(F)c3)C(=O)N2C1 [PP0912],0.0405,B (a compound having 3 or more and less than 10 is denoted as B),B (a compound having 3 or more and less than 10 is denoted as B)
CCO[C@@H]1C[C@H]2C(=O)NC3(CCC3)C(=O)N(C)[C@@H](C3CCCC3)C(=O)N(C)[C@H](C(=O)N(C)C)CC(=O)N(C)[C@@H](CC)C(=O)N[C@@H]([C@@H](C)CC)C(=O)N(C)CC(=O)N(C)[C@H]3CCCCCN(C3=O)[C@@H](Cc3nccs3)C(=O)N(C)CC(=O)N[C@@H](CCc3cc(F)c(C(F)(F)F)c(F)c3)C(=O)N2C1 [PP0913],0.206,B (a compound having 3 or more and less than 10 is denoted as B),B (a compound having 3 or more and less than 10 is denoted as B)
CCO[C@@H]1C[C@H]2C(=O)NC3(CCC3)C(=O)N(C)[C@@H](C3CCCC3)C(=O)N(C)[C@H](C(=O)N3CCOCC3)CC(=O)N(C)[C@@H](CC(C)C)C(=O)N[C@@H]([C@@H](C)CC)C(=O)N(C)CC(=O)N(C)[C@H]3CCCCCN(C3=O)[C@@H](Cc3ccc(F)c(F)c3)C(=O)N(C)CC(=O)N[C@@H](CCc3cc(F)c(C(F)(F)F)c(F)c3)C(=O)N2C1 [PP0917],0.0252,B (a compound having 3 or more and less than 10 is denoted as B),B (a compound having 3 or more and less than 10 is denoted as B)
CCO[C@@H]1C[C@H]2C(=O)NC3(CCC3)C(=O)N(C)[C@@H](C3CCCC3)C(=O)N(C)[C@H](C(=O)N3CCOCC3)CC(=O)N(C)[C@@H](CC(C)C)C(=O)N[C@@H]([C@@H](C)CC)C(=O)N(C)CC(=O)N(C)[C@H]3CCCCCN(C3=O)[C@@H](Cc3nccs3)C(=O)N(C)CC(=O)N[C@@H](CCc3cc(F)c(C(F)(F)F)c(F)c3)C(=O)N2C1 [PP0923],0.445,B (a compound having 3 or more and less than 10 is denoted as B),B (a compound having 3 or more and less than 10 is denoted as B)
CCCN1C(=O)CN(C)C(=O)CN(C)C(=O)[C@H]([C@@H](C)CC)NC(=O)[C@@H]2CCCCCCC[C@@H](NC(=O)[C@@H]3C[C@@H](OCC)CN3C(=O)[C@H](CCc3cc(F)c(C(F)(F)F)c(F)c3)NC(=O)CN(C)C(=O)[C@@H]1Cc1ccc(C(F)(F)F)cc1)C(=O)N(C)[C@@H](C1CCCC1)C(=O)N(C)[C@H](C(=O)N(C)C)CC(=O)N2C [PP0925],0.091,B (a compound having 3 or more and less than 10 is denoted as B),A (a compound having 10 or more and less than 20 is denoted as A)
